The subject of one assay is Akt-pS473 in U87MG cells. The note with it: Homo sapiens, U-87 MG; for IC50: read-out: U87 Akt-pS473 % Inhibition or IC50, nM (IC50), U87MG cells.
Assay [1] addresses mTOR (human recombinant aa mTOR 1360-2549) (Homo sapiens (Human), UniProt P42345). The experiment in a line: mTOR enzymatic test by TR-FRET (phosphorylation of GFP-4EBP1). It is filed as biochemical. An outline of the steps: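 TR-FRET detection of GFP-4EBP1 phosphorylation by a terbium-labelled anti-phospho-Thr46 antibody. Kinase reaction ran 30 min at room temperature, was quenched with EDTA (10 mM final) plus Tb-antibody (2 nM final) and left 60 min. Emission at 520 and 490 nm after 340 nm excitation, reported as the 520/490 ratio.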
Background: In TR-FRET formats the signal depends on donor and acceptor labels being close together.

Another assay relates to U87MG tumour cells. Kind of assay: Test of in vitro proliferation of U87MG tumour cells. It is filed as cell-based. The conditions noted are these: Homo sapiens, U-87 MG, 72 h, U87MG cells, 72 hours; read-out: U87 Cell Proliferation IC50. How it is done: Model 4: Test of in vitro Proliferation of U87MG Tumour Cells.
The cell growth is determined with the reagent CellTiter 96 AQueous One Solution Cell Proliferation Assay from Promega (Cat. No. G3581).

The next assay concerns the target PI3Kα (p110α/p85α) (Homo sapiens (Human), UniProt P42336). The experiment in a line: PI3Kα enzymatic test by measuring the consumption of ATP. The class given is biochemical. An outline of the steps: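 p110α/p85α (1.7 μg/ml) with 50 μM PIP2 and 2 μM ATP in pH 7.5 Tris buffer with EGTA, MgCl2, Chaps, DTT; reaction 90 min. Remaining ATP measured by luciferin/luciferase luminescence; IC50 from threefold serial dilutions spanning at least 10 000-fold.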

The structures appear in SMILES notation.

The text below walks through data of patent publication US9120812B2, “Pyrimidooxazocine derivatives as mTOR-inhibitors” (SANOFI, priority 2012, dated 2015).

PI3Kα (p110α/p85α), sequence (P42336 whole entry): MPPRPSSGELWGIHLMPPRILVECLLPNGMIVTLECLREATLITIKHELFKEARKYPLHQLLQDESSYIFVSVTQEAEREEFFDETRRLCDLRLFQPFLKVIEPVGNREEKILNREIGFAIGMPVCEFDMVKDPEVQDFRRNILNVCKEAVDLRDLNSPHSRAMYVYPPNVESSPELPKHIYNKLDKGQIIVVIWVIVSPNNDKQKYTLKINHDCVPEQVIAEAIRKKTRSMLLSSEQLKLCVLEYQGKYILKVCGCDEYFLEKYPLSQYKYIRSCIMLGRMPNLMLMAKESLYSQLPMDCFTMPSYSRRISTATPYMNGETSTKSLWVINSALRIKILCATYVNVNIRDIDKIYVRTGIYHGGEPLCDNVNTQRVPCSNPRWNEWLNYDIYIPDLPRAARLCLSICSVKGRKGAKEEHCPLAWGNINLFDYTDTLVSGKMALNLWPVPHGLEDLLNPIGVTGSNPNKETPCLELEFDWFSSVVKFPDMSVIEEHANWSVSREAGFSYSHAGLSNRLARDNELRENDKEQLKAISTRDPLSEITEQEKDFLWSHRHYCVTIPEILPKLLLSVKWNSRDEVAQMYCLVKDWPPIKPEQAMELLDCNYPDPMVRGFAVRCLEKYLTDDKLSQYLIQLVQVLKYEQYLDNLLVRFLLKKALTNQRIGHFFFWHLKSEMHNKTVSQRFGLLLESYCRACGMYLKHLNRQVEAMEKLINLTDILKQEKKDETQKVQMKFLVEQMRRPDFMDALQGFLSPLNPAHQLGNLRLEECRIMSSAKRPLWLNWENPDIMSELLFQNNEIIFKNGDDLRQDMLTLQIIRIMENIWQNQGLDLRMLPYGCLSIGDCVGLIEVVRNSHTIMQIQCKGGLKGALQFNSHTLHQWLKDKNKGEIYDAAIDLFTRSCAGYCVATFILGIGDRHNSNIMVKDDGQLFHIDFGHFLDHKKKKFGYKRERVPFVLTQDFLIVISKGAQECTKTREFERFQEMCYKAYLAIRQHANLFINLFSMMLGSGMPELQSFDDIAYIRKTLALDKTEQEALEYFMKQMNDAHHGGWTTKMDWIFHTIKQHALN
PI3Kα (p110α/p85α), sequence (P27986 whole entry partner): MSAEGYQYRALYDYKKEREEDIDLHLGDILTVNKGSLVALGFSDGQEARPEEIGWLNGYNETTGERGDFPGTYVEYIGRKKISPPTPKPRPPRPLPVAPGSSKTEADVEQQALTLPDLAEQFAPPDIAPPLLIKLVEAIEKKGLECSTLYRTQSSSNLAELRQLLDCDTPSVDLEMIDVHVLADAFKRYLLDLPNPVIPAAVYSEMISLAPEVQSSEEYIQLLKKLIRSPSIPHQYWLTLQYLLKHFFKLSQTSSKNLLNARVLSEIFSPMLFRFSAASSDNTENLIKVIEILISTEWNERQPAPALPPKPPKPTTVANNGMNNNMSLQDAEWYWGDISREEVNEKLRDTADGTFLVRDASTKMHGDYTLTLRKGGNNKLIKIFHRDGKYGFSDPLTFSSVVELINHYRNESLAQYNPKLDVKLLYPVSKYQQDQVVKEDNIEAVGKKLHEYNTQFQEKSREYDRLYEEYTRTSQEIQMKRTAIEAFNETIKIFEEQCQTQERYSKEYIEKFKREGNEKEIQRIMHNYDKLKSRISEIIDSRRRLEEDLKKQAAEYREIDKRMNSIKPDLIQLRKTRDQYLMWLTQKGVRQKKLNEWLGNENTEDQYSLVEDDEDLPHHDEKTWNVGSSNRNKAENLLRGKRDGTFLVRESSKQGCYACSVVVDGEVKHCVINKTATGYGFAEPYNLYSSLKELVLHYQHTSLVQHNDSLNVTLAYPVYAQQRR
mTOR (human recombinant aa mTOR 1360-2549), sequence (P42345 1360-2549): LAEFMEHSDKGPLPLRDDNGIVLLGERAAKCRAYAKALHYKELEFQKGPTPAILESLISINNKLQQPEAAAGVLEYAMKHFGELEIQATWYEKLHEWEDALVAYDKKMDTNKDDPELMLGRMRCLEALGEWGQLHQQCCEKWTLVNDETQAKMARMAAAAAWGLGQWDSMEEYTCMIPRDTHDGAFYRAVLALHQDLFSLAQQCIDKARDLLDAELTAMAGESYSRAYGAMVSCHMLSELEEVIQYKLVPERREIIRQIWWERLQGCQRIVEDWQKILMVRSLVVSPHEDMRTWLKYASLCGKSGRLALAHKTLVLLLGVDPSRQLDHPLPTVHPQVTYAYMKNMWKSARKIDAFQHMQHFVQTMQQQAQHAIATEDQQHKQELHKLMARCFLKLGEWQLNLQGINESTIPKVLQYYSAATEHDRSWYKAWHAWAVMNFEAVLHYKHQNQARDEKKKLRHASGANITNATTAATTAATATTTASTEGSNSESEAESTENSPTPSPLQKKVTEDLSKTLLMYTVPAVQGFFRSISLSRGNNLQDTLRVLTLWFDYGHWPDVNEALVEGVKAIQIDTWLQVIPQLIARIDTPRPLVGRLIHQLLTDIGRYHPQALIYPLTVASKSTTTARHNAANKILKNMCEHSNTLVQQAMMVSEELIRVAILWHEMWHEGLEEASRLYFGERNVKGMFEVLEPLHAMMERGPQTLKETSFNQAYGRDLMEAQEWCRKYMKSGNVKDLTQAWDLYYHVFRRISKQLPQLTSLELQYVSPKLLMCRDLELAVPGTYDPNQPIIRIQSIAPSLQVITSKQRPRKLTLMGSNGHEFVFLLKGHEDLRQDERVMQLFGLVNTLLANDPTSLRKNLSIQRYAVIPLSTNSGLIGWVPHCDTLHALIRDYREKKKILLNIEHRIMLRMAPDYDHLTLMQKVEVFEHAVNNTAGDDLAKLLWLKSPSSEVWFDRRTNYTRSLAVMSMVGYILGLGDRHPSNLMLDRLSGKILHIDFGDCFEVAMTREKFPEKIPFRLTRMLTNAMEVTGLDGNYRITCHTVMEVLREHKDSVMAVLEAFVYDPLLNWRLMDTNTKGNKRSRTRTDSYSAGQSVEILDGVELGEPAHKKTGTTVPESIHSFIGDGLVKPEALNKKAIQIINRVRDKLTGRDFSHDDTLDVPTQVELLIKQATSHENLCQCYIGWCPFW
Procedure for Akt-pS473 in U87MG cells: Model 3: Cellular Test of Phosphorylation of the Epitope S473 of the Akt Protein on the U87MG Line Via an ELISA Test
An electrochemiluminescence signal is generated by a ruthenium-labelled anti-rabbit antibody.
After culturing for 16-20 hours (the cells are at 100% of confluence) at 37° C. under 5% CO2, 1 μl of the chemical compounds in 100% DMSO (1% DMSO final concentration on the cells) is added. The cells are incubated with the compounds for 3 hours at 37° C. under 5% CO2.
The free sites are blocked with 150 μl/well of a buffer of 50 mM Tris pH 7.5, 0.15 M NaCl, 0.02% Tween 20, 3% BSA with stirring at 450 rpm for 1 hour at room temperature, followed by a step of washing with 3×300 μl of a buffer of 50 mM Tris pH 7.5, 0.15 M NaCl, 0.02% Tween 20.
15 μl of cell lysate are mixed with 15 μl of a 50 mM buffer of Tris pH 7.5, 0.15 M NaCl, 0.02% Tween 20, 1% BSA in a precoated ELISA plate (see above), and incubated for 1 hour at room temperature with stirring, followed by a step of washing with 3×300 μl of a buffer of 50 mM Tris pH 7.5, 0.15 M NaCl, 0.02% Tween 20. The pS473 epitope of Akt is detected with a rabbit polyclonal antibody (Cell Signaling, SC9271), diluted 100-fold in 50 mM Tris pH 7.5, 0.15 M NaCl, 0.02% Tween 20, 1% BSA, 25 μl/well (incubation for 1 hour at room temperature with stirring at 450 rpm).
After washing (see above), revelation is performed with a ruthenium-labelled anti-rabbit antibody (MSD R32AB1), diluted 3000-fold in a 50 mM buffer of Tris pH 7.5, 0.15 M NaCl, 0.02% Tween 20, 1% BSA, 25 μl/well, followed by incubation for 1 hour at room temperature with stirring at 450 rpm, and the plates are covered with aluminium.
After a further washing step, the plates are emptied and 150 μl of MSD Read Buffer T diluted fourfold with water are added. The electrochemiluminescence is measured on the MSD Sector Imager 6000.

On to `C[C@@H](CO)OC(=O)Nc1ccc(-c2nc(N3CC4CCC(C3)O4)nc3c2C(=O)N(C)CC(C)(C)O3)cc1` [Example 238, {4-[6,8,8-Trimethyl-2-(8-oxa-3-azabicyclo[3.2.1]oct-3-yl)-5-oxo-5,6,7,8-tetrahydro-9-oxa-1,3,6-triazabenzocyclohepten-4-yl]phenyl}carbamic acid (S)-2-hydroxy-1-methylethyl ester], for which the IC50 in the assay with Akt-pS473 in U87MG cells was over 1000 nM; in assay [1] it was 678 nM; with U87MG tumour cells, 1700 nM. For the same compound, the “PI3Ka IC50” value on PI3Kα (p110α/p85α) is reported as over 10000 nM.
`CCN1CC(C)(C)Oc2nc(N3CC4CCC(C3)O4)nc(-c3ccc(NC(=O)Nc4cnc(OC)nc4)c(F)c3)c2C1=O` [Example 136, 1-{4-[6-Ethyl-8,8-dimethyl-2-(8-oxa-3-azabicyclo[3.2.1]oct-3-yl)-5-oxo-5,6,7,8-tetrahydro-9-oxa-1,3,6-triazabenzocyclohepten-4-yl]-2-fluorophenyl}-3-(2-methoxypyrimidin-5-yl)urea]: the IC50 in the assay with Akt-pS473 in U87MG cells was 37 nM; in assay [1], 34 nM; with U87MG tumour cells, 239 nM. The “PI3Ka IC50” value at PI3Kα (p110α/p85α) is reported as over 10000 nM.
On the same counts, the results for `CN1CC(C)(C)Oc2nc(N3CC4CCC(C3)O4)nc(-c3ccc(NC(=O)Nc4ccncc4)cc3)c2C1=O` [Example 69, 1-Pyridin-4-yl-3-{4-[6,8,8-trimethyl-2-(8-oxa-3-azabicyclo[3.2.1]oct-3-yl)-5-oxo-5,6,7,8-tetrahydro-9-oxa-1,3,6-triazabenzocyclohepten-4-yl]phenyl}urea] are 35 nM, 6 nM, 79 nM and 472 nM.
The matching figures for `CCN1CC(C)(C)Oc2nc(N3CCOC[C@@H]3C)nc(-c3ccc(NC(=O)Nc4cc(OC)ccn4)cc3)c2C1=O` [Example 184, 1-{4-[6-Ethyl-8,8-dimethyl-2-((S)-3-methylmorpholin-4-yl)-5-oxo-5,6,7,8-tetrahydro-9-oxa-1,3,6-triazabenzocyclohepten-4-yl]phenyl}-3-(4-methoxypyridin-2-yl)urea]: 65 nM, 12 nM, 368 nM and 12978 nM.
On the same counts, the results for `COCCN1CC(C)(C)Oc2nc(N3CCOC[C@@H]3C)nc(-c3ccc(NC(=O)Nc4cnn(C)c4)cc3)c2C1=O` [Example 201, 1-{4-[6-(2-Methoxyethyl)-8,8-dimethyl-2-((S)-3-methylmorpholin-4-yl)-5-oxo-5,6,7,8-tetrahydro-9-oxa-1,3,6-triazabenzocyclohepten-4-yl]phenyl}-3-(1-methyl-1H-pyrazol-4-yl)urea] are 230 nM, 48 nM, 898 nM and 813 nM.
Turning to `CN1CC(C)(C)Oc2nc(N3C4CCC3COC4)nc(-c3ccc(NC(=O)Nc4ccccn4)cc3)c2C1=O` [Example 41, 1-Pyridin-2-yl-3-{4-[6,8,8-trimethyl-2-(3-oxa-8-azabicyclo[3.2.1]oct-8-yl)-5-oxo-5,6,7,8-tetrahydro-9-oxa-1,3,6-triazabenzocyclohepten-4-yl]phenyl}urea], the IC50 is 31 nM with Akt-pS473 in U87MG cells, 35 nM in assay [1] and 122 nM with U87MG tumour cells. Moreover, the “PI3Ka IC50” value at PI3Kα (p110α/p85α) is given as over 10000 nM.
Consider `CCN1CC(C)(C)Oc2nc(N3CC4CCC(C3)O4)nc(-c3ccc(NC(=O)Nc4ccc(OC)nn4)cc3)c2C1=O` [Example 146, 1-{4-[6-Ethyl-8,8-dimethyl-2-(8-oxa-3-azabicyclo[3.2.1]oct-3-yl)-5-oxo-5,6,7,8-tetrahydro-9-oxa-1,3,6-triazabenzocyclohepten-4-yl]phenyl}-3-(6-methoxypyridazin-3-yl)urea], for which the IC50 amounted to 82 nM in the assay on Akt-pS473 in U87MG cells, 35 nM in assay [1] and 441 nM in the assay on U87MG tumour cells. Further, on PI3Kα (p110α/p85α), the “PI3Ka IC50” value is listed as over 10000 nM.
`CCN1CC(C)(C)Oc2nc(N3CCOC[C@@H]3C)nc(-c3ccc(NC(=O)Nc4ccc(N5C[C@@H]6C[C@H]5CO6)nc4)c(F)c3)c2C1=O` [Example 252, 1-{4-[6-Ethyl-8,8-dimethyl-2-((S)-3-methylmorpholin-4-yl)-5-oxo-5,6,7,8-tetrahydro-9-oxa-1,3,6-triazabenzocyclohepten-4-yl]-2-fluorophenyl}-3-[(1S,4S)-6-(2-oxa-5-azabicyclo[2.2.1]hept-5-yl)pyridin-3-yl]urea]: the IC50 was determined as 48 nM with Akt-pS473 in U87MG cells, 68 nM in assay [1] and 282 nM in the assay on U87MG tumour cells. In addition, on PI3Kα (p110α/p85α), the “PI3Ka IC50” value was determined as 1360 nM.
`CCNC(=O)Nc1ccc(-c2nc(N3CC4CCC(C3)O4)nc3c2C(=O)N(CCOC)CC(C)(C)O3)cc1` [Example 217, 1-Ethyl-3-{4-[6-(2-methoxyethyl)-8,8-dimethyl-2-(8-oxa-3-azabicyclo[3.2.1]oct-3-yl)-5-oxo-5,6,7,8-tetrahydro-9-oxa-1,3,6-triazabenzocyclohepten-4-yl]phenyl}urea]: in the assay with Akt-pS473 in U87MG cells (read-out: U87 Akt-pS473 % Inhibition), the inhibition at 3 µM is 80%. Besides, the IC50 was found to be 59 nM in assay [1] and 1760 nM in the assay on U87MG tumour cells. Moreover, on PI3Kα (p110α/p85α), the “PI3Ka IC50” value is recorded as over 10000 nM.
Take `CCNC(=O)Nc1ccc(-c2nc(N3CC4CCC(C3)O4)nc3c2C(=O)N(C2CCN(C)CC2)CC(C)(C)O3)cc1` [Example 132, 1-{4-[8,8-Dimethyl-6-(1-methylpiperidin-4-yl)-2-(8-oxa-3-azabicyclo[3.2.1]oct-3-yl)-5-oxo-5,6,7,8-tetrahydro-9-oxa-1,3,6-triazabenzocyclohepten-4-yl]phenyl}-3-ethylurea]: the IC50 in the assay on Akt-pS473 in U87MG cells was over 3000 nM; in assay [1] it was 245 nM; in the assay on U87MG tumour cells it was over 10000 nM. Also, the “PI3Ka IC50” value at PI3Kα (p110α/p85α) was found to be 4320 nM.
The matching figures for `CNC(=O)Nc1ccc(-c2nc(N3C4CCC3COC4)nc3c2C(=O)N(C)CC(C)(C)O3)cc1F` [Example 46, 1-{2-Fluoro-4-[6,8,8-trimethyl-2-(3-oxa-8-azabicyclo[3.2.1]oct-8-yl)-5-oxo-5,6,7,8-tetrahydro-9-oxa-1,3,6-triazabenzocyclohepten-4-yl]phenyl}-3-methylurea]: 24 nM, 26 nM, 90 nM and 8880 nM.
Take `CCN1CC(C)(C)Oc2nc(N3CC4CCC(C3)O4)nc(-c3ccc(Nc4nnc(C)[nH]4)c(F)c3)c2C1=O` [Example 152, 6-Ethyl-4-[3-fluoro-4-(5-methyl-4H-[1,2,4]triazol-3-ylamino)phenyl]-8,8-dimethyl-2-(8-oxa-3-azabicyclo[3.2.1]oct-3-yl)-7,8-dihydro-6H-9-oxa-1,3,6-triazabenzocyclohepten-5-one]: the IC50 amounted to 257 nM with Akt-pS473 in U87MG cells, 348 nM in assay [1] and 2680 nM in the assay with U87MG tumour cells. Also, at PI3Kα (p110α/p85α), the “PI3Ka IC50” value is over 10000 nM.
On the same counts, the results for `CCN1CC(C)(C)Oc2nc(N3CC4CCC(C3)O4)nc(-c3ccc(NC(=O)O[C@H](C)CO)c(F)c3)c2C1=O` [Example 62, {4-[6-Ethyl-8,8-dimethyl-2-(8-oxa-3-azabicyclo[3.2.1]oct-3-yl)-5-oxo-5,6,7,8-tetrahydro-9-oxa-1,3,6-triazabenzocyclohepten-4-yl]-2-fluorophenyl}carbamic acid (R)-2-hydroxy-1-methylethyl ester] are over 1000 nM, 667 nM, over 10000 nM and over 10000 nM.
On the same counts, the results for `COCCN1CC(C)(C)Oc2nc(N3CC4CCC(C3)O4)nc(-c3ccc(NC(=O)Nc4ccon4)cc3)c2C1=O` [Example 172, 1-Isoxazol-3-yl-3-{4-[6-(2-methoxyethyl)-8,8-dimethyl-2-(8-oxa-3-azabicyclo[3.2.1]oct-3-yl)-5-oxo-5,6,7,8-tetrahydro-9-oxa-1,3,6-triazabenzocyclohepten-4-yl]phenyl}urea] are 98 nM, 20 nM, 198 nM and under 10000 nM.
The matching figures for `CCN1CC(C)(C)Oc2nc(N3CC4CCC(C3)O4)nc(-c3ccc(NC(=O)Nc4ccc(N5CCN(C(=O)OC)CC5)cc4)c(F)c3)c2C1=O` [Example 236, 4-[4-(3-{4-[6-Ethyl-8,8-dimethyl-2-(8-oxa-3-azabicyclo[3.2.1]oct-3-yl)-5-oxo-5,6,7,8-tetrahydro-9-oxa-1,3,6-triazabenzocyclohepten-4-yl]-2-fluorophenyl}ureido)phenyl]piperazine-1-carboxylic acid methyl ester]: 20 nM, 112 nM, 29 nM and over 7200 nM.
For `CCN1CC(C)(C)Oc2nc(N3CC4CCC(C3)O4)nc(-c3ccc(NC(=O)Nc4ccc(C)cn4)cc3)c2C1=O` [Example 34, 1-{4-[6-Ethyl-8,8-dimethyl-2-(8-oxa-3-azabicyclo[3.2.1]oct-3-yl)-5-oxo-5,6,7,8-tetrahydro-9-oxa-1,3,6-triazabenzocyclohepten-4-yl]phenyl}-3-(5-methylpyridin-2-yl)urea], the IC50 came out at 70 nM in the assay with Akt-pS473 in U87MG cells, 43 nM in assay [1] and 320 nM in the assay with U87MG tumour cells. For the same compound, the “PI3Ka IC50” value at PI3Kα (p110α/p85α) is reported as over 10000 nM.

A word on the inhibition: it is the relative decrease from the control value, in per cent.
